“Also recorded” adds a separate entry of the source.
System: circulating macrophage/monocyte population
Assay: Monocyte/macrophage depletion with gadolinium chloride in the NaIO3 model
Type: in vivo, rat
Source text: To determine the identity of the autofluorescent cells that coincide with the reticular pattern of FAF, excised retina were stained for with markers of the innate immune system, avoiding the 488 nm channel. Iba1 is a pan-microglial/macrophage marker and in the rat retina; antibodies against it identify the major phagocytic cell populations. […] Further, when compared against photoreceptor nuclear staining, this curvilinear pattern is seen to lie interposed between folds of the deformed ONL. This pattern of Iba1^+ cells corresponds with the pattern of hyperfluorescence observed in vivo by FAF imaging, and with the pattern of autofluorescent cells in excised retina. […] Importantly, at 7 days after NaIO3, all RPE cells are absent from the posterior eye cup, confirming that these cells cannot be responsible for the observed FAF. Also, identification of the autofluorescent cells as phagocytic was confirmed by comparison of imaging to preparations in which monocyte/macrophage depletion has been undertaken. Such depletion was achieved by treatment with gadolinium chloride (GAD). […]

## [Cl][Gd]([Cl])[Cl] [GAD, gadolinium chloride]
7 days after NaIO3 and simultaneous GAD depletion
  area of damage: smaller areas of damage
GAD-treated vs untreated, after NaIO3
  FAF pattern of NaIO3-induced outer retinal damage: far less well defined reticular patterns of FAF; also recorded: profound alteration of the NaIO3-induced pattern of FAF and DNIRA; also recorded: less well-demarcated borders
